Results as given in patent US11896558B2, “Use of an RXR agonist and taxanes in treating Her2+ cancers” (Io Therapeutics, Inc., priority 2021, dated 2024).
“Also recorded” adds a separate entry of the source.

Key:
[1] = Daily dosing of IRX4204 free acid in adult human; assay type: in vivo
RAR/RXR = test: Activation of non-permissive RAR/RXR heterodimer; assay type: cell-based
PPAR/RXR = test: Activation of PPAR/RXR heterodimer; assay type: cell-based; details: permissive heterodimer
LXR/RXR = test: Activation of LXR/RXR heterodimer; assay type: cell-based; details: permissive heterodimer
RXR homodimers = test: Activation of RXR homodimers; assay type: cell-based
[2] = system: Her2+ AU565 human breast cancer cell line; test: Growth inhibition of AU565 cells, nuclei count; assay type: cell-based; details: paclitaxel 2.5, 5 or 10 nM, IRX4204 10, 100 or 1000 nM, 6-10 days
Description: After 6-10 days of treatment, cells were fixed with 4% paraformaldehyde. Nuclei were stained with DAPI, imaged using ImageXpress® Pico (Molecular Devices) and counted using CellReporterXpress® Analysis Software. Each data point represents the average of six replicates.
To assess whether the increased inhibition from the combination of agents was additive or synergistic, the Combination Index (CI) was calculated using the computational program CompuSyn (ComboSyn, Inc.).

RARα = RARα (Homo sapiens, UniProt P10276); details: α isoform
Chain of RARα (P10276 whole entry, species assumed, canonical isoform): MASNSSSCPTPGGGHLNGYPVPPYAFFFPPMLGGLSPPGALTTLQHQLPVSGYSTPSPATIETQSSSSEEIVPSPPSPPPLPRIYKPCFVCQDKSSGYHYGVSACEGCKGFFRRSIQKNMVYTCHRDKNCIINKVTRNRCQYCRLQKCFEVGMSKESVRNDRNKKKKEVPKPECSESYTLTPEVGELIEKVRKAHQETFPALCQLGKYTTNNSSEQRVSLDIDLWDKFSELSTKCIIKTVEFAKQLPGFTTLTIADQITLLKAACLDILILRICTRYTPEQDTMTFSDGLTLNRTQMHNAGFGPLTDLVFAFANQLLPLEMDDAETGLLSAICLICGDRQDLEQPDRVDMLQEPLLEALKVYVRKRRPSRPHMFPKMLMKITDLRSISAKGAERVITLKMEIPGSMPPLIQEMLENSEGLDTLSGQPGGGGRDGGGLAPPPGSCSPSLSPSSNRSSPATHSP

RARβ = RARβ (Homo sapiens, UniProt P10826); details: β isoform
Chain of RARβ (P10826 whole entry, species assumed, canonical isoform): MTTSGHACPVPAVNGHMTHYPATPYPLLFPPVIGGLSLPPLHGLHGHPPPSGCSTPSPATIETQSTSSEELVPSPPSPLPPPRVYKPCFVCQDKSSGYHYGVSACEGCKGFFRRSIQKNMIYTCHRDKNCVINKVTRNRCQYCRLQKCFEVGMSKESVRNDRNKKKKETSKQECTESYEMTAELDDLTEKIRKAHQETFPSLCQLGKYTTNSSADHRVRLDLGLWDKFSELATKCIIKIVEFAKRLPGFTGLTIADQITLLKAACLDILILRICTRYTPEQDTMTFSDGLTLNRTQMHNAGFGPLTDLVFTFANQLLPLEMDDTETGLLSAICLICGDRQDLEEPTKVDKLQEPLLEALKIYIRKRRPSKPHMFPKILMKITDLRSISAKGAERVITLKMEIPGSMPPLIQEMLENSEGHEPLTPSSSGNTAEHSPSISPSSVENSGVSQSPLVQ

RARγ = RARγ (Homo sapiens, UniProt P13631); details: γ isoform
Chain of RARγ (P13631 whole entry, species assumed, canonical isoform): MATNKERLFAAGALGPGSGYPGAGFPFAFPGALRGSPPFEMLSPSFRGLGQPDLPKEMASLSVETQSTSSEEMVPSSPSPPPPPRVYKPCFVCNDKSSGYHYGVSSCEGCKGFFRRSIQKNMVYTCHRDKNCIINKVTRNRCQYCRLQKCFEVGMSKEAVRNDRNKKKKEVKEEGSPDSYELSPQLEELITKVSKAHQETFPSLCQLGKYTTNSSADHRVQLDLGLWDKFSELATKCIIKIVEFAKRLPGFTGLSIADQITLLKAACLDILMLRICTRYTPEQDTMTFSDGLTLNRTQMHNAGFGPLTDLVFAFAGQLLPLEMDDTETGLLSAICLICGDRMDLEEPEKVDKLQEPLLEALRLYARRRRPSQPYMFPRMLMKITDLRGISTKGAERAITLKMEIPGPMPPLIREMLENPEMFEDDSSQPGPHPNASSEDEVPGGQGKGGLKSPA

FXR/RXR = test: Activation of FXR/RXR heterodimer; details: permissive heterodimer
Nurr1/RXR heterodimer = test: Activation of Nurr1/RXR heterodimer; details: permissive heterodimer
[3] = Systemic concentrations after oral dosing in humans
[4] = system: PPAR/RXR, FXR/RXR, or LXR/RXR; details: cited from earlier work
[5] = system: NSCLC (non-small cell lung cancer); details: cited from earlier work

## CC(/C=C/[C@@H]1C[C@]1(C)c1ccc2c(c1)C(C)(C)CCC2(C)C)=C\C(=O)O [IRX4204, 3,7-dimethyl-6(S),7(S)-methano,7-[1,1,4,4-tetramethyl-1,2,3,4-tetrahydron-aphth-7-yl]2(E), 4(E) heptadienoic acid]
[1]; 10 mg/day free acid
  hypothyroidism: does not result in hypothyroidism
[1]; 20 mg/day free acid
  hypothyroidism: may induce a mild hypothyroidism
RAR/RXR
  activation of RAR/RXR heterodimer: does not activate
PPAR/RXR
  activation of PPAR/RXR heterodimer: does not activate
LXR/RXR
  activation of LXR/RXR heterodimer: does not activate
RXR homodimers
  activation of RXR homodimers: specifically activate
[2]
  growth inhibition as sole agent: sensitive; also recorded: near maximal effect
RARα
  RAR EC10 (concentration effective to cause a 10% of maximal activation of the RAR): 300 nM
RARβ
  RAR EC10 (concentration effective to cause a 10% of maximal activation of the RAR): 200 nM
RARγ
  RAR EC10 (concentration effective to cause a 10% of maximal activation of the RAR): 200 nM
FXR/RXR
  activation of FXR/RXR heterodimer: does not activate
Nurr1/RXR heterodimer
  activation of Nurr1/RXR heterodimer: specifically activates
[3]; oral dosage 0.01 to 0.02 mg/m^2/day, estimated
  systemic concentrations: at least 0.1 nM
[3]; oral dosage 20 mg/m^2/day, based on studies in humans
  systemic concentrations: below 200 nM

## Cc1cc2c(cc1C1(c3ccc(C(=O)O)cn3)CC1)C(C)(C)CCC2(C)C [LGD268]
[4]
  activation of one or more of PPAR/RXR, FXR/RXR, or LXR/RXR: activates one or more of PPAR/RXR, FXR/RXR, or LXR/RXR

## C=C(c1ccc(C(=O)O)cc1)c1cc2c(cc1C)C(C)(C)CCC2(C)C [TARGRETIN, bexarotene]
[5]; NSCLC
  survival in pivotal Phase III clinical study: did not show increased survival
[5]; several Phase II studies in NSCLC
  results of Phase II studies: Encouraging results

## CC(=O)O[C@H]1C(=O)[C@@]2(C)[C@H]([C@H](OC(=O)c3ccccc3)[C@]3(O)C[C@H](OC(=O)[C@H](O)[C@@H](NC(=O)c4ccccc4)c4ccccc4)C(C)=C1C3(C)C)[C@]1(OC(C)=O)CO[C@@H]1C[C@@H]2O [paclitaxel, Paclitaxel, reference compound]
[2]
  growth inhibition as sole agent: sensitive
